Some results are limits rather than exact numbers.

The target in the test is T1, Full length human recombinant HDAC6 protein (Homo sapiens, UniProt Q9UBN7).
T1 sequence (Q9UBN7 1-1215): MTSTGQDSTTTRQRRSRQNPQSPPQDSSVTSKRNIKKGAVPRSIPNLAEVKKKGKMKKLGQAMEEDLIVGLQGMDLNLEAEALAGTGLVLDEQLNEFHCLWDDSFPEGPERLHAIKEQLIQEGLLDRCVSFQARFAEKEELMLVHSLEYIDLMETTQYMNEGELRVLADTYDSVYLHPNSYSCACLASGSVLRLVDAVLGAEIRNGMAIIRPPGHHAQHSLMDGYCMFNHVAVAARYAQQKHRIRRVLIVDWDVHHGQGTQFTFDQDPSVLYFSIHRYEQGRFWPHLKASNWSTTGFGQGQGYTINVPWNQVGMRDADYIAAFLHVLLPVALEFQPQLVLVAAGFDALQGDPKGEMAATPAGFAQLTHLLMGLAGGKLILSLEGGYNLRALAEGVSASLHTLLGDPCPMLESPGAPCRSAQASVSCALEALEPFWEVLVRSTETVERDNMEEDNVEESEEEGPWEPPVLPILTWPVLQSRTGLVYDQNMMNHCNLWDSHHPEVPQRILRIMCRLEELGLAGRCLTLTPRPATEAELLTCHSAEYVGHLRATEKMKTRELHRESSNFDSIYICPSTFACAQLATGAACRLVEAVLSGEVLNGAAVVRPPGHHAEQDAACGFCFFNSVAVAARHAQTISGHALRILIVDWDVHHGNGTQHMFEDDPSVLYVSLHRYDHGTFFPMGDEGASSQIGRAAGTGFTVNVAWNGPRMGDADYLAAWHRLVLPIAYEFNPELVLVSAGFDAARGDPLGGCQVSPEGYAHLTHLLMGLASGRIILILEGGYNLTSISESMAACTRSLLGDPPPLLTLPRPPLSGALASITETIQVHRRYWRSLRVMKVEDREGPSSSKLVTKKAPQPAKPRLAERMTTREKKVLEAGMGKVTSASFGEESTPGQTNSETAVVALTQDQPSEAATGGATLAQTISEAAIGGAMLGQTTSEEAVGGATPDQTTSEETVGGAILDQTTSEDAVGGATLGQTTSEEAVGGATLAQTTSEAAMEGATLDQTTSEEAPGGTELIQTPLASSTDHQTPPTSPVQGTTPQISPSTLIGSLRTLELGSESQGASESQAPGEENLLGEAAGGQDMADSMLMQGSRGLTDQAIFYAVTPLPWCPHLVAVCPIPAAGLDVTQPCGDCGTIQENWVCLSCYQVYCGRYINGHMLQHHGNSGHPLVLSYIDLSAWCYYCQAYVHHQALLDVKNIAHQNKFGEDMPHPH
The test can be described thus: In vitro histone deacetylase assay: enzymatic HDAC6 electrophoretic mobility shift assay. It is filed as biochemical. The settings on record: 1 nM enzyme, 2 μM peptide substrate RHKK(Ac)-NH2, 25° C., 12 concentrations; read-out: Inhibitory Concentration (IC50) Values against HDAC6, Activity Range. (Mobility shift assays separate free from complexed probe on a gel.)

As for `O=C(NO)c1ccc2c(c1)OCCN(C(=O)COc1cccc(Cl)c1)C2` [4-(2-(3-chlorophenoxy)acetyl)-N-hydroxy-2,3,4,5-tetrahydrobenzo[f][1,4]oxazepine-8-carboxamide], the IC50 fell in the range of 0.1 to 0.5 µM.

Consider `C[C@H]1c2ccc(C(=O)NO)cc2OCCN1C(=O)[C@]1(C)CCCOC1` [(S)-N-hydroxy-5-methyl-4-((R)-3-methyltetrahydro-2H-pyran-3-carbonyl)-2,3,4,5-tetrahydrobenzo[f][1,4]oxazepine-8-carboxamide], for which the IC50 was not above 0.1 µM.

For `C[C@@H]1c2cc(C(=O)NO)ccc2OCCN1C(=O)C1(C)CCC1` [(R)-N-hydroxy-5-methyl-4-(1-methylcyclobutane-1-carbonyl)-2,3,4,5-tetrahydrobenzo[f][1,4]oxazepine-7-carboxamide], the IC50 is not above 0.1 µM.

As to `COC1(C(=O)N2Cc3ccc(C(=O)NO)cc3OC[C@@H]2C)CCCC1` [(S)-N-hydroxy-4-(1-methoxycyclopentane-1-carbonyl)-3-methyl-2,3,4,5-tetrahydrobenzo[f][1,4]oxazepine-8-carboxamide], the IC50 was not above 0.1 µM.

As to `C[C@H]1COc2cc(C(=O)NO)ccc2CN1C(=O)C1CCS(=O)(=O)C1` (stereo partly drawn) [(3S)-4-(1,1-dioxidotetrahydrothiophene-3-carbonyl)-N-hydroxy-3-methyl-2,3,4,5-tetrahydrobenzo[f][1,4]oxazepine-8-carboxamide], the IC50 is not above 0.1 µM.

As for `C[C@H]1COc2cc(C(=O)NO)ccc2CN1C(=O)c1ccccc1` [(S)-4-benzoyl-N-hydroxy-3-methyl-2,3,4,5-tetrahydrobenzo[f][1,4]oxazepine-8-carboxamide], the IC50 is not above 0.1 µM.

In the case of `O=C(NO)c1ccc2c(c1)OCCN(C(=O)C1CCCC1)C2` [4-(cyclopentanecarbonyl)-N-hydroxy-2,3,4,5-tetrahydrobenzo[f][1,4]oxazepine-8-carboxamide], the IC50 is not above 0.1 µM.

For the molecule `O=C(NO)c1ccc2c(c1)OCCN(C(=O)C1(O)CC1)C2` [N-hydroxy-4-(1-hydroxycyclopropane-1-carbonyl)-2,3,4,5-tetrahydrobenzo[f][1,4]oxazepine-8-carboxamide], the IC50 is more than 0.5 µM.

For the molecule `COC1(C(=O)N2CCOc3cc(C(=O)NO)ccc3C2)CCC1` [N-hydroxy-4-(1-methoxycyclobutane-1-carbonyl)-2,3,4,5-tetrahydrobenzo[f][1,4]oxazepine-8-carboxamide], the IC50 was not above 0.1 µM.

Take `O=CN1Cc2ccc(C(=O)NO)cc2O[C@H](c2ccccc2)C1` [(R)-4-formyl-N-hydroxy-2-phenyl-2,3,4,5-tetrahydrobenzo[f][1,4]oxazepine-8-carboxamide]: the IC50 is not above 0.1 µM.

With `O=C(NO)c1ccc2c(n1)OCCN(C(=O)C1CCCCC1)C2` [4-(cyclohexanecarbonyl)-N-hydroxy-2,3,4,5-tetrahydropyrido[3,2-f][1,4]oxazepine-8-carboxamide], the IC50 lay within 0.1 to 0.5 µM.

Consider `C[C@H]1c2ccc(C(=O)NO)cc2OCCN1C(=O)C1COC1` [(S)-N-hydroxy-5-methyl-4-(oxetane-3-carbonyl)-2,3,4,5-tetrahydrobenzo[f][1,4]oxazepine-8-carboxamide], for which the IC50 is not above 0.1 µM.

Regarding `O=C(NO)c1ccc2c(c1)OCCN(C(=O)C1CC(F)(F)C1)C2` [4-(3,3-difluorocyclobutane-1-carbonyl)-N-hydroxy-2,3,4,5-tetrahydrobenzo[f][1,4]oxazepine-8-carboxamide], the IC50 was in the range of 0.1 to 0.5 µM.

Regarding `C[C@H]1COc2cc(C(=O)NO)ccc2CN1C(=O)C(C)(C)Cc1ccc(F)cc1` [(S)-4-(3-(4-fluorophenyl)-2,2-dimethylpropanoyl)-N-hydroxy-3-methyl-2,3,4,5-tetrahydrobenzo[f][1,4]oxazepine-8-carboxamide], the IC50 is not above 0.1 µM.

Take `CC(C)C1OCCC1C(=O)N1Cc2ccc(C(=O)NO)cc2OC[C@@H]1C` (stereo partly drawn) [(3S)-N-hydroxy-4-(2-isopropyltetrahydrofuran-3-carbonyl)-3-methyl-2,3,4,5-tetrahydrobenzo[f][1,4]oxazepine-8-carboxamide]: the IC50 is not above 0.1 µM.

Take `C[C@H]1c2cc(C(=O)NO)ccc2OCCN1C(=O)C1CCOCC1` [(S)-N-hydroxy-5-methyl-4-(tetrahydro-2H-pyran-4-carbonyl)-2,3,4,5-tetrahydrobenzo[f][1,4]oxazepine-7-carboxamide]: the IC50 was more than 0.5 µM.

With `O=C(NO)c1ccc2c(c1)OCCN(C(=O)C1CCOCC1)C2` [N-hydroxy-4-(tetrahydro-2H-pyran-4-carbonyl)-2,3,4,5-tetrahydrobenzo[f][1,4]oxazepine-8-carboxamide], the IC50 was not above 0.1 µM.

Regarding `COC(C)(C)CC(=O)N1Cc2ccc(C(=O)NO)cc2OC[C@@H]1C` [(S)-N-hydroxy-4-(3-methoxy-3-methylbutanoyl)-3-methyl-2,3,4,5-tetrahydrobenzo[f][1,4]oxazepine-8-carboxamide], the IC50 was not above 0.1 µM.

For `O=CN1Cc2ccc(C(=O)NO)cc2O[C@@H](c2ccccc2)C1` [(S)-4-formyl-N-hydroxy-2-phenyl-2,3,4,5-tetrahydrobenzo[f][1,4]oxazepine-8-carboxamide], the IC50 was not above 0.1 µM.

Take `C[C@H]1c2ccc(C(=O)NO)cc2OCCN1C(=O)[C@H]1CCOC1` [(S)-N-hydroxy-5-methyl-4-((S)-tetrahydrofuran-3-carbonyl)-2,3,4,5-tetrahydrobenzo[f][1,4]oxazepine-8-carboxamide]: the IC50 was not above 0.1 µM.

As for `COC[C@H]1CN(C(=O)C2(C)CCC2)Cc2ccc(C(=O)NO)cc2O1` [(R)-N-hydroxy-2-(methoxymethyl)-4-(1-methylcyclobutane-1-carbonyl)-2,3,4,5-tetrahydrobenzo[f][1,4]oxazepine-8-carboxamide], the IC50 was 0.1 to 0.5 µM.

As for `CC(=O)N1CCC(C(=O)N2Cc3ccc(C(=O)NO)cc3OC[C@@H]2C)CC1` [(S)-4-(1-acetylpiperidine-4-carbonyl)-N-hydroxy-3-methyl-2,3,4,5-tetrahydrobenzo[f][1,4]oxazepine-8-carboxamide], the IC50 was not above 0.1 µM.

As for `C[C@H]1c2cc(C(=O)NO)ccc2OCCN1C(=O)C1(C)CCC1` [(S)-N-hydroxy-5-methyl-4-(1-methylcyclobutane-1-carbonyl)-2,3,4,5-tetrahydrobenzo[f][1,4]oxazepine-7-carboxamide], the IC50 lay within 0.1 to 0.5 µM.

`Cn1cccc1C(=O)N1CCOc2cc(C(=O)NO)ccc2C1` [N-hydroxy-4-(1-methyl-1H-pyrrole-2-carbonyl)-2,3,4,5-tetrahydrobenzo[f][1,4]oxazepine-8-carboxamide]: the IC50 is not above 0.1 µM.

Consider `C[C@H]1c2ccc(C(=O)NO)cc2OCCN1C(=O)[C@@H]1CCCOC1` [(S)-N-hydroxy-5-methyl-4-((R)-tetrahydro-2H-pyran-3-carbonyl)-2,3,4,5-tetrahydrobenzo[f][1,4]oxazepine-8-carboxamide], for which the IC50 was not above 0.1 µM.

Regarding `O=C(NO)c1ccc2c(c1)OCCN(C(=O)C1(S(=O)(=O)c3ccccc3)CC1)C2` [N-hydroxy-4-(1-(phenylsulfonyl)cyclopropane-1-carbonyl)-2,3,4,5-tetrahydrobenzo[f][1,4]oxazepine-8-carboxamide], the IC50 was not above 0.1 µM.

For the molecule `COC[C@@H]1CN(C=O)Cc2ccc(C(=O)NO)cc2O1` [(S)-4-formyl-N-hydroxy-2-(methoxymethyl)-2,3,4,5-tetrahydrobenzo[f][1,4]oxazepine-8-carboxamide], the IC50 lay within 0.1 to 0.5 µM.

`COC(C(=O)N1CCOc2cc(C(=O)NO)ccc2C1)c1ccccc1` (stereo not shown) [N-hydroxy-4-(2-methoxy-2-phenylacetyl)-2,3,4,5-tetrahydrobenzo[f][1,4]oxazepine-8-carboxamide]: the IC50 fell in the range of 0.1 to 0.5 µM.

For `O=C(NO)c1ccc2c(c1)OC[C@H](C(F)(F)F)N(C(=O)C1CCOCC1)C2` [(R)-N-hydroxy-4-(tetrahydro-2H-pyran-4-carbonyl)-3-(trifluoromethyl)-2,3,4,5-tetrahydrobenzo[f][1,4]oxazepine-8-carboxamide], the IC50 was not above 0.1 µM.

Consider `O=C(NO)c1ccc2c(c1)OCCN(C(=O)Cn1cccc(C(F)(F)F)c1=O)C2` [N-hydroxy-4-(2-(2-oxo-3-(trifluoromethyl)pyridin-1(2H)-yl)acetyl)-2,3,4,5-tetrahydrobenzo[f][1,4]oxazepine-8-carboxamide], for which the IC50 fell in the range of 0.1 to 0.5 µM.

In the case of `O=C(NO)c1ccc2c(c1)OCCN(C(=O)C(OCC(F)(F)F)c1ccccc1)C2` (stereo not shown) [N-hydroxy-4-(2-phenyl-2-(2,2,2-trifluoroethoxy)acetyl)-2,3,4,5-tetrahydrobenzo[f][1,4]oxazepine-8-carboxamide], the IC50 lay in the range of 0.1 to 0.5 µM.

The values are drawn from patent US11891365B2, “3-alkyl-4-amido-bicyclic [4,5,0] hydroxamic acids as HDAC inhibitors” (Valo Health, Inc., priority 2015, dated 2024).
